In patent US6410480B1, “Herbicidally active 3-hydroxy-4-aryl-5-oxopyrazoline derivatives” (Syngenta Crop Protection, Inc., priority 1998, dated 2002):

How the values were obtained:
Format in all cases: in vivo
Avena [1] = experiment: Example B3: pre-emergence herbicidal action of compounds of the invention; design: key: 1=complete damage; 9=no effect; Ratings of 1 to 4 (in particular 1 to 3) mean a good to very good herbicidal action; settings: 500 g of active substance/ha, 3 weeks after application, scale 1-9
Experimental: (§1) Monocotyledonous and dicotyledonous weeds are grown in standard soil in plastic pots. Directly after sowing, the test substances are applied (500 l of water/ha) as an aqueous suspension (prepared using a 25% wettable powder (Example F3, b)) or as an emulsion (prepared using a 25% emulsion concentrate (Example F1, c)). The application rate is 500 g of active substance/ha. The test plants are subsequently grown under optimum conditions in a greenhouse 3 weeks after the application, evaluation is carried out using a nine-level scale of ratings (1=complete damage, 9=no effect). Ratings of 1 to 4 (in particular 1 to 3) mean a good to very good herbicidal action. Test plants: Avena (Ave), Lolium (Lol), Setaria (Set).

Setaria [2] = experiment: as above; design: key: 1=complete damage; 9=no effect; Ratings of 1 to 4 (in particular 1 to 3) mean a good to very good herbicidal action; settings: 500 g of active substance/ha, 3 weeks after application, scale 1-9
Experimental: as §1

Lolium [3] = experiment: as above; design: key: 1=complete damage; 9=no effect; Ratings of 1 to 4 (in particular 1 to 3) mean a good to very good herbicidal action; settings: 500 g of active substance/ha, 3 weeks after application, scale 1-9
Experimental: as §1

Avena [4] = experiment: Example B2: post-emergence herbicidal action, comparison with prior art; design: key: 1=complete damage; 9=no effect; Ratings of 1 to 4 (in particular 1 to 3) mean a good to very good herbicidal action; settings: 3- to 6-leaf stage, 500 g of ai/ha, 3 weeks after application, scale 1-9
Experimental: (§2) Monocotyledonous and dicotyledonous weeds are grown in standard soil in plastic pots under greenhouse conditions. The test substances are applied at the 3- to 6-leaf stage of the test plants. The test substances are applied (500 l of water/ha) as an aqueous suspension (prepared using a 25% wettable powder (Example F3, b)) or as an emulsion (prepared using a 25% emulsion concentrate (Example F1, c)) at an application rate of 500 g of active substance/ha. 3 weeks after the application, evaluation is carried out using a nine-level scale of ratings (1=complete damage, 9=no effect). Ratings of 1 to 4 (in particular 1 to 3) mean a good to very good herbicidal action. Test plants: Alopecurus (Alo), Avena (Ave), Lolium (Lol), Setaria (Set), Panicum (Pan), Sorghum (Sor), Digitaria (Dig), Echinocloa (Ech) and Brachiaria (Bra).

Brachiaria [5] = experiment: as above; design: key: 1=complete damage; 9=no effect; Ratings of 1 to 4 (in particular 1 to 3) mean a good to very good herbicidal action; settings: 3- to 6-leaf stage, 500 g of ai/ha, 3 weeks after application, scale 1-9
Experimental: as §2

Sorghum [6] = experiment: as above; design: key: 1=complete damage; 9=no effect; Ratings of 1 to 4 (in particular 1 to 3) mean a good to very good herbicidal action; settings: 3- to 6-leaf stage, 500 g of ai/ha, 3 weeks after application, scale 1-9
Experimental: as §2

Panicum [7] = experiment: as above; design: key: 1=complete damage; 9=no effect; Ratings of 1 to 4 (in particular 1 to 3) mean a good to very good herbicidal action; settings: 3- to 6-leaf stage, 500 g of ai/ha, 3 weeks after application, scale 1-9
Experimental: as §2

Setaria [8] = experiment: as above; design: key: 1=complete damage; 9=no effect; Ratings of 1 to 4 (in particular 1 to 3) mean a good to very good herbicidal action; settings: 3- to 6-leaf stage, 500 g of ai/ha, 3 weeks after application, scale 1-9
Experimental: as §2

Echinocloa [9] = experiment: as above; design: key: 1=complete damage; 9=no effect; Ratings of 1 to 4 (in particular 1 to 3) mean a good to very good herbicidal action; settings: 3- to 6-leaf stage, 500 g of ai/ha, 3 weeks after application, scale 1-9
Experimental: as §2

Digitaria [10] = experiment: as above; design: key: 1=complete damage; 9=no effect; Ratings of 1 to 4 (in particular 1 to 3) mean a good to very good herbicidal action; settings: 3- to 6-leaf stage, 500 g of ai/ha, 3 weeks after application, scale 1-9
Experimental: as §2

Lolium [11] = experiment: as above; design: key: 1=complete damage; 9=no effect; Ratings of 1 to 4 (in particular 1 to 3) mean a good to very good herbicidal action; settings: 3- to 6-leaf stage, 500 g of ai/ha, 3 weeks after application, scale 1-9
Experimental: as §2

Avena [12] = experiment: Example B4: post-emergence herbicidal action of compounds of the invention; design: key: 1=complete damage; 9=no effect; Ratings of 1 to 4 (in particular 1 to 3) mean a good to very good herbicidal action; settings: 3- to 6-leaf stage, 250 g of active substance/ha, 3 weeks after application, scale 1-9
Experimental: as §2, with “of 250” for “of 500”, “plants:” for “plants: Alopecurus (Alo),”, “Setaria (Set).” for “Setaria (Set), Panicum (Pan), Sorghum (Sor), Digitaria (Dig), Echinocloa (Ech) and Brachiaria (Bra).”

Setaria [13] = experiment: as above; design: key: 1=complete damage; 9=no effect; Ratings of 1 to 4 (in particular 1 to 3) mean a good to very good herbicidal action; settings: 3- to 6-leaf stage, 250 g of active substance/ha, 3 weeks after application, scale 1-9
Experimental: as §2, with “of 250” for “of 500”, “plants:” for “plants: Alopecurus (Alo),”, “Setaria (Set).” for “Setaria (Set), Panicum (Pan), Sorghum (Sor), Digitaria (Dig), Echinocloa (Ech) and Brachiaria (Bra).”

Lolium [14] = experiment: as above; design: key: 1=complete damage; 9=no effect; Ratings of 1 to 4 (in particular 1 to 3) mean a good to very good herbicidal action; settings: 3- to 6-leaf stage, 250 g of active substance/ha, 3 weeks after application, scale 1-9
Experimental: as §2, with “of 250” for “of 500”, “plants:” for “plants: Alopecurus (Alo),”, “Setaria (Set).” for “Setaria (Set), Panicum (Pan), Sorghum (Sor), Digitaria (Dig), Echinocloa (Ech) and Brachiaria (Bra).”

Alopecurus [15] = experiment: Example B2: post-emergence herbicidal action, comparison with prior art; settings: 3- to 6-leaf stage, 500 g of ai/ha, 3 weeks after application, scale 1-9
Experimental: as §2

Avena [16] = experiment: Example B1: pre-emergence herbicidal action, comparison with prior art; settings: 500 g of ai/ha, 3 weeks after application, scale 1-9
Text: (§3) Monocotyledonous and dicotyledonous weeds are sown in standard soil in plastic pots. Immediately after sowing, the test substances are applied (500 l of water/ha) as an aqueous suspension (prepared using a 25% wettable powder (Example F3, b)) or as an emulsion (prepared using a 25% emulsion concentrate (Example F1, c)). The application rate is 500 g of active substance/ha. The test plants are subsequently grown under optimum conditions in a greenhouse. 3 weeks after the application, evaluation is carried out using a nine-level scale of ratings (1=complete damage, 9=no effect). Ratings of 1 to 4 (in particular 1 to 3) mean a good to very good herbicidal action. Test plants: Alopecurus (Alo), Avena (Ave), Lolium (Lot), Setaria (Set), Panicum (Pan), Sorghum (Sor), Digitaria (Dig), Echinocloa (Ech) and Brachiaria (Bra).

Brachiaria [17] = experiment: as above; settings: 500 g of ai/ha, 3 weeks after application, scale 1-9
Text: as §3

Digitaria [18] = experiment: as above; settings: 500 g of ai/ha, 3 weeks after application, scale 1-9
Text: as §3

Alopecurus [19] = experiment: as above; settings: 500 g of ai/ha, 3 weeks after application, scale 1-9
Text: as §3

Sorghum [20] = experiment: as above; design: key: 1=complete damage; 9=no effect; Ratings of 1 to 4 (in particular 1 to 3) mean a good to very good herbicidal action; settings: 500 g of ai/ha, 3 weeks after application, scale 1-9
Text: as §3

Panicum [21] = experiment: as above; design: key: 1=complete damage; 9=no effect; Ratings of 1 to 4 (in particular 1 to 3) mean a good to very good herbicidal action; settings: 500 g of ai/ha, 3 weeks after application, scale 1-9
Text: as §3

Setaria [22] = experiment: as above; design: key: 1=complete damage; 9=no effect; Ratings of 1 to 4 (in particular 1 to 3) mean a good to very good herbicidal action; settings: 500 g of ai/ha, 3 weeks after application, scale 1-9
Text: as §3

Echinocloa [23] = experiment: as above; design: key: 1=complete damage; 9=no effect; Ratings of 1 to 4 (in particular 1 to 3) mean a good to very good herbicidal action; settings: 500 g of ai/ha, 3 weeks after application, scale 1-9
Text: as §3

Lolium [24] = experiment: as above; design: key: 1=complete damage; 9=no effect; Ratings of 1 to 4 (in particular 1 to 3) mean a good to very good herbicidal action; settings: 500 g of ai/ha, 3 weeks after application, scale 1-9
Text: as §3

Cc1cc(C)c(-c2c(O)n3n(c2=O)CCOCC3)c(C)c1 [1.001]
Pre-emergence action, Ave (rating) (Avena [1]): 4 | Pre-emergence action, Set (rating) (Setaria [2]): 1 | Pre-emergence action, Lol (rating) (Lolium [3]): 1 | Post-emergence action, Ave (rating) (Avena [4]): 1 | Post-emergence action, Bra (rating) (Brachiaria [5]): 1 | Post-emergence action, Sor (rating) (Sorghum [6]): 1 | Post-emergence action, Pan (rating) (Panicum [7]): 1 | Post-emergence action, Set (rating) (Setaria [8]): 1 | Post-emergence action, Ech (rating) (Echinocloa [9]): 1 | Post-emergence action, Dig (rating) (Digitaria [10]): 1 | Post-emergence action, Lol (rating) (Lolium [11]): 1 | Post-emergence action, Ave (rating) (Avena [12]): 1 | Post-emergence action, Set (rating) (Setaria [13]): 2 | Post-emergence action, Lol (rating) (Lolium [14]): 1 | Post-emergence action, Alo (rating) (Alopecurus [15]): 2 | Pre-emergence action, Ave (rating) (Avena [16]): 4 | Pre-emergence action, Bra (rating) (Brachiaria [17]): 2 | Pre-emergence action, Dig (rating) (Digitaria [18]): 2 | Pre-emergence action, Alo (rating) (Alopecurus [19]): 3 | Pre-emergence action, Sor (rating) (Sorghum [20]): 1 | Pre-emergence action, Pan (rating) (Panicum [21]): 1 | Pre-emergence action, Set (rating) (Setaria [22]): 1 | Pre-emergence action, Ech (rating) (Echinocloa [23]): 1 | Pre-emergence action, Lol (rating) (Lolium [24]): 1

CCc1cc(C)cc(C)c1-c1c(O)n2n(c1=O)CCOCC2 [1.004]
Pre-emergence action, Ave (rating) (Avena [1]): 1 | Pre-emergence action, Set (rating) (Setaria [2]): 2 | Pre-emergence action, Lol (rating) (Lolium [3]): 1

CCc1cc(C)cc(C)c1-c1c(OC(=O)C(C)(C)C)n2n(c1=O)CCOCC2 [1.005]
Post-emergence action, Ave (rating) (Avena [12]): 1 | Post-emergence action, Set (rating) (Setaria [13]): 2 | Post-emergence action, Lol (rating) (Lolium [14]): 2

CCc1cc(C)cc(CC)c1-c1c(OC(=O)C(C)(C)C)n2n(c1=O)CCOCC2 [1.008]
Pre-emergence action, Ave (rating) (Avena [1]): 1 | Pre-emergence action, Set (rating) (Setaria [2]): 1 | Pre-emergence action, Lol (rating) (Lolium [3]): 1

C#Cc1cc(C)cc(C)c1-c1c(OC(=O)C(C)(C)C)n2n(c1=O)CCOCC2 [1.016]
Post-emergence action, Ave (rating) (Avena [12]): 3 | Post-emergence action, Set (rating) (Setaria [13]): 2 | Post-emergence action, Lol (rating) (Lolium [14]): 2

Cc1cc(C)c(-c2c(O)n3n(c2=O)CCOCC3)c(Br)c1 [1.078]
Post-emergence action, Ave (rating) (Avena [12]): 1 | Post-emergence action, Set (rating) (Setaria [13]): 4 | Post-emergence action, Lol (rating) (Lolium [14]): 1

CCc1cc(Br)cc(C)c1-c1c(OC(=O)C(C)(C)C)n2n(c1=O)CCOCC2 [1.085]
Post-emergence action, Ave (rating) (Avena [12]): 1 | Post-emergence action, Set (rating) (Setaria [13]): 2 | Post-emergence action, Lol (rating) (Lolium [14]): 2

Cc1cc(Br)c(-c2c(O)n3n(c2=O)CCOCC3)c(Br)c1 [1.088]
Post-emergence action, Ave (rating) (Avena [12]): 4 | Post-emergence action, Set (rating) (Setaria [13]): 3 | Post-emergence action, Lol (rating) (Lolium [14]): 4

CCc1cc(C)cc(CC)c1-c1c(O)n2n(c1=O)CCOCC2 [Compound No. 1.007]
Post-emergence action, Ave (rating) (Avena [12]): 1 | Post-emergence action, Set (rating) (Setaria [13]): 1 | Post-emergence action, Lol (rating) (Lolium [14]): 1

Cc1cc(C)c(C2C(=O)N3CCCCCN3C2=O)c(C)c1 [compound A, reference compound]
Post-emergence action, Ave (rating) (Avena [4]): 2 | Post-emergence action, Bra (rating) (Brachiaria [5]): 2 | Post-emergence action, Sor (rating) (Sorghum [6]): 3 | Post-emergence action, Pan (rating) (Panicum [7]): 2 | Post-emergence action, Set (rating) (Setaria [8]): 4 | Post-emergence action, Ech (rating) (Echinocloa [9]): 1 | Post-emergence action, Dig (rating) (Digitaria [10]): 5 | Post-emergence action, Lol (rating) (Lolium [11]): 5 | Post-emergence action, Alo (rating) (Alopecurus [15]): 5 | Pre-emergence action, Ave (rating) (Avena [16]): 7 | Pre-emergence action, Bra (rating) (Brachiaria [17]): 3 | Pre-emergence action, Dig (rating) (Digitaria [18]): 7 | Pre-emergence action, Alo (rating) (Alopecurus [19]): 5 | Pre-emergence action, Sor (rating) (Sorghum [20]): 6 | Pre-emergence action, Pan (rating) (Panicum [21]): 7 | Pre-emergence action, Set (rating) (Setaria [22]): 3 | Pre-emergence action, Ech (rating) (Echinocloa [23]): 5 | Pre-emergence action, Lol (rating) (Lolium [24]): 4
